This note sets out measurements from ChEMBL document CHEMBL1130059, “Neurotrophic 3,9-bis[(alkylthio)methyl]-and-bis(alkoxymethyl)-K-252a derivatives” (J Med Chem, 1997).

Assay [1] addresses T1, Choline O-acetyltransferase (Rattus norvegicus) (UniProt P32738).
T1 sequence (whole entry): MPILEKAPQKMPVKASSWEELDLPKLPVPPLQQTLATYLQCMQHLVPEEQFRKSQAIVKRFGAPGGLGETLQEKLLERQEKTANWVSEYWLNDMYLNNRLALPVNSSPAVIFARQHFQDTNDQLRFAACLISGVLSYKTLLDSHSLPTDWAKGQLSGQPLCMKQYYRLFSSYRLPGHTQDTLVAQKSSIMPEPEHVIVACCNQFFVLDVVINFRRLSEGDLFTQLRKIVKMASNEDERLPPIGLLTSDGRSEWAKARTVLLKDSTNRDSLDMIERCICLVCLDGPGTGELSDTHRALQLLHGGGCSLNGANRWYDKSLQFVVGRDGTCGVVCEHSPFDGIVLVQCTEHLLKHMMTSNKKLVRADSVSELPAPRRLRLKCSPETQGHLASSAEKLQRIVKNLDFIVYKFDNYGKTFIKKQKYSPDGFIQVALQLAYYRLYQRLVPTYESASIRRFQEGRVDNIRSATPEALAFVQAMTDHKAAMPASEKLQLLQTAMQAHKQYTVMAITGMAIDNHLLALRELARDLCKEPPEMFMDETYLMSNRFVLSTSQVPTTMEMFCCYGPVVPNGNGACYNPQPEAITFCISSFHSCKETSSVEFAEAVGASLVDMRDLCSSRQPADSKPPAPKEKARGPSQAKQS
As to the kind of experiment: Neurotrophic activity as measured by the ability to enhance embryonic rat spinal cord choline acetyl transferase at 30 nM. Type of assay: functional.

Assay [2] addresses T1, Choline O-acetyltransferase (Rattus norvegicus). As to the kind of experiment: Neurotrophic activity as measured by the ability to enhance embryonic rat spinal cord choline acetyl transferase at 300 nM. Type of assay: functional.
The target is the same in assay [3]. As to the kind of experiment: Neurotrophic activity as measured by the ability to enhance basal forebrain choline acetyl transferase at 50 nM. Type of assay: functional.
The target in assay [4] is High affinity nerve growth factor receptor (Homo sapiens, UniProt P04629). As to the kind of experiment: Ability to inhibit human trk A tyrosine kinase expressed in baculovirus using ELISA based enzyme assay was determined. Background: An ELISA detects its analyte on a solid surface through an enzyme-linked reagent.
Assay [5] concerns the target T1, Choline O-acetyltransferase (Rattus norvegicus). As to the kind of experiment: Neurotrophic activity as measured by the ability to enhance basal forebrain choline acetyl transferase at 250 nM. It is filed as functional.
The target in assay [6] is Myosin light chain kinase, smooth muscle (Gallus gallus, UniProt P11799). As to the kind of experiment: Inhibition of Smooth muscle myosin light chain kinase of chicken gizzard.
In a further assay the target is Protein kinase C (PKC). As to the kind of experiment: Inhibition of Protein kinase C of Rat brain.
Assay [7] has as its target cAMP-dependent protein kinase alpha-catalytic subunit (Oryctolagus cuniculus, UniProt Q95J97). As to the kind of experiment: Inhibition of cAMP dependent Protein kinase A of rabbit Skeletal Muscle.

High affinity nerve growth factor receptor, sequence (P04629 whole entry): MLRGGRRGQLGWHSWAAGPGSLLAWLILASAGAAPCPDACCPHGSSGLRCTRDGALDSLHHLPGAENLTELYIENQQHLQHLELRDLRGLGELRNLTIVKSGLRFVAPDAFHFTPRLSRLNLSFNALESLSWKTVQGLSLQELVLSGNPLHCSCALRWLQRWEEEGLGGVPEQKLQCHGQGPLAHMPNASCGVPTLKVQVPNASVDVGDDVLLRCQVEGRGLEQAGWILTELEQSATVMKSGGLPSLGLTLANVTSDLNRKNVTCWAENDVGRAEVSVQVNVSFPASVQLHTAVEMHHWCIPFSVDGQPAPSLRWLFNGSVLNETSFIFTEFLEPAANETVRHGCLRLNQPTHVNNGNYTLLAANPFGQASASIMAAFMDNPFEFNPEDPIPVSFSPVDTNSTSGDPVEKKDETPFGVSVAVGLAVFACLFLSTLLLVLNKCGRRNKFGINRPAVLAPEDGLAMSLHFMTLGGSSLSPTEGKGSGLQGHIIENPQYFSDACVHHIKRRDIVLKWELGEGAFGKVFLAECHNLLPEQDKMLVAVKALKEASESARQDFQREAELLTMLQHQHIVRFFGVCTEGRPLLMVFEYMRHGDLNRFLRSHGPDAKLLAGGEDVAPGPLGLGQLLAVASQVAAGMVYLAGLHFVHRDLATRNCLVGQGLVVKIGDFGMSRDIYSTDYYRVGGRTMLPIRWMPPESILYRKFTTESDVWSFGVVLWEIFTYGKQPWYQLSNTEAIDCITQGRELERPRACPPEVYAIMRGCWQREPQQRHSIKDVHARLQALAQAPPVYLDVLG
Myosin light chain kinase, smooth muscle, sequence (P11799 whole entry): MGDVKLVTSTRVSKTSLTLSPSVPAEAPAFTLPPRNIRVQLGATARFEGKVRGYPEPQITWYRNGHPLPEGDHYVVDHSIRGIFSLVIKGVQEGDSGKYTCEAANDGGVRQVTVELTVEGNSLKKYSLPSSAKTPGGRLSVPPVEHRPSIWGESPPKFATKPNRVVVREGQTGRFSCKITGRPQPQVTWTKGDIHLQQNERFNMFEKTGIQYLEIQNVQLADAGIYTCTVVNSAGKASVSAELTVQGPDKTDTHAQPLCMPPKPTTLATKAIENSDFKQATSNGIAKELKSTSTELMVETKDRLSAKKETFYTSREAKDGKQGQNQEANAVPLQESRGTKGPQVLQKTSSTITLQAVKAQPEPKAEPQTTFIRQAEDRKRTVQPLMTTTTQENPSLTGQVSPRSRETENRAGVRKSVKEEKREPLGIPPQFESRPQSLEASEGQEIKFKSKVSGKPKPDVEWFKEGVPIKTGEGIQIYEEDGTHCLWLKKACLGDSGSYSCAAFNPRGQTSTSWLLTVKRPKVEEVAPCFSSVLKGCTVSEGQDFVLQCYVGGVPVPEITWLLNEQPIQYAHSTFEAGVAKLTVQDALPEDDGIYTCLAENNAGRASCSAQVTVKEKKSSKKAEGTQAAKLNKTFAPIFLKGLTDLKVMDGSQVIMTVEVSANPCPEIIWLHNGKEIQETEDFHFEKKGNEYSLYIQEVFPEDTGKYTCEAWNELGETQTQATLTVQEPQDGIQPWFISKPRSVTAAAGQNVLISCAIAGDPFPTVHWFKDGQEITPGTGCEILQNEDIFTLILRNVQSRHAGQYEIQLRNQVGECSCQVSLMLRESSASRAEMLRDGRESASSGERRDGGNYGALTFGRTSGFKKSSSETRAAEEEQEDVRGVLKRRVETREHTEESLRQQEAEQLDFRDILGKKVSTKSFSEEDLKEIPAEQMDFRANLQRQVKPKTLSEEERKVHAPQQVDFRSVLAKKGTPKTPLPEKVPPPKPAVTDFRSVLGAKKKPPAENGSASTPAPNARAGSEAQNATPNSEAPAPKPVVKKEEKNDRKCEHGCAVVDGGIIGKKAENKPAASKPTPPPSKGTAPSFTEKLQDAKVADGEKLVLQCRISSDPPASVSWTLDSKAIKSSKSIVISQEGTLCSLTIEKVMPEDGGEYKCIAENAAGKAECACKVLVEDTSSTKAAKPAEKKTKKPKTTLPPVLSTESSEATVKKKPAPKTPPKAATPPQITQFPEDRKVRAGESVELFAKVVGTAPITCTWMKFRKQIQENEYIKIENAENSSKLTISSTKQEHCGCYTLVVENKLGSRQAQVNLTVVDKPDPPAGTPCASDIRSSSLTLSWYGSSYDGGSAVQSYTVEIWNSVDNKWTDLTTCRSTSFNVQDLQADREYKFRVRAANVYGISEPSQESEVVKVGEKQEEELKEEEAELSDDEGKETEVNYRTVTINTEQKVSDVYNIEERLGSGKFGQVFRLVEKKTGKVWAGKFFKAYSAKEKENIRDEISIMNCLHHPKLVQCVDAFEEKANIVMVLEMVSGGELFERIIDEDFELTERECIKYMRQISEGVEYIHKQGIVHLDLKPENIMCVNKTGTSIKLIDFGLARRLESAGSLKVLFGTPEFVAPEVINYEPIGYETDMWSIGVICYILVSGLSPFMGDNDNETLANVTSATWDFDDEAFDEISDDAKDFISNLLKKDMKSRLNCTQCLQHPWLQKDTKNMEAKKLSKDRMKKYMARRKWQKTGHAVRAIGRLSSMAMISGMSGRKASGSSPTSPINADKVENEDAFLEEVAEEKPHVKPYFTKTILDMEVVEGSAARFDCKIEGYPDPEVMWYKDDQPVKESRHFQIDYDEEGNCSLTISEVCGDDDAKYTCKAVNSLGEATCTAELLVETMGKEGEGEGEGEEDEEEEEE

For orientation: IC50 means the point on the concentration scale where inhibition reaches its midpoint. As for `COC(=O)[C@@]1(O)CC2O[C@]1(C)n1c3ccc(CSC(C)C)cc3c3c4c(c5c6cc(CSC(C)C)ccc6n2c5c31)C(=O)NC4`, the Control was under 120% in assay [1], 289% in assay [2] and 224% in assay [3]. Moreover, in assay [4], the IC50 is over 1 µM.

Turning to `CCOCc1ccc2c(c1)c1c3c(c4c5cc(COCC)ccc5n5c4c1n2C1C[C@](O)(C(=O)OC)[C@]5(C)O1)CNC3=O`, the Control in assay [1] was 153%; in assay [5], 237%; in assay [2], 188%; in assay [3], under 120%. This molecule returned a concentration for half-maximal inhibition (IC50) in assay [4] of 0.21 µM.

Regarding `C=CCSCc1ccc2c(c1)c1c3c(c4c5cc(CSCC=C)ccc5n5c4c1n2C1C[C@](O)(C(=O)OC)[C@]5(C)O1)CNC3=O`, the Control in assay [1] is under 120%; in assay [5], 191%; in assay [2], 302%; in assay [3], under 120%. This molecule also had an IC50 in assay [4] of over 1 µM.

In the case of `CCCCSCc1ccc2c(c1)c1c3c(c4c5cc(CSCCCC)ccc5n5c4c1n2C1C[C@](O)(C(=O)OC)[C@]5(C)O1)CNC3=O`, the Control in assay [1] is under 120%; in assay [5] it was 200%; in assay [2], 289%; in assay [3], 143%. In addition, the IC50 in assay [4] is over 1 µM.

For `CCCSCc1ccc2c(c1)c1c3c(c4c5cc(CSCCC)ccc5n5c4c1n2C1C[C@](O)(C(=O)OC)[C@]5(C)O1)CNC3=O`, the Control in assay [1] is under 120%; in assay [5] it was 180%; in assay [2], 315%; in assay [3], under 120%. The molecule also displayed an IC50 in assay [4] of over 1 µM.

As to `COC(=O)[C@@]1(O)CC2O[C@]1(C)n1c3ccc(CO)cc3c3c4c(c5c6cc(CO)ccc6n2c5c31)C(=O)NC4`, the Control in assay [1] and in assay [2] was under 120% in each case.

Consider `CCSCc1ccc2c(c1)c1c3c(c4c5cc(CSCC)ccc5n5c4c1n2C1C[C@](O)(C(=O)OC)[C@]5(C)O1)CNC3=O`, for which the Control in assay [1] was determined as 140%; in assay [5], 363%; in assay [2], 280%; in assay [3], 143%. Also, the IC50 was over 10 µM in assay [6], 16.3 µM against Protein kinase C (PKC), over 10 µM in assay [7] and over 1 µM in assay [4].

Regarding `COCc1ccc2c(c1)c1c3c(c4c5cc(COC)ccc5n5c4c1n2C1C[C@](O)(C(=O)OC)[C@]5(C)O1)CNC3=O`, the Control stood at 193% in assay [1], 340% in assay [5], 218% in assay [2] and 168% in assay [3]. Moreover, the IC50 in assay [4] came to 0.27 µM.

On to `COC(=O)[C@@]1(O)CC2O[C@]1(C)n1c3ccc(CSCCN(C)C)cc3c3c4c(c5c6cc(CSCCN(C)C)ccc6n2c5c31)C(=O)NC4`, for which the Control is under 120% in assay [1], 158% in assay [5], 208% in assay [2] and under 120% in assay [3].

Regarding `COC(=O)[C@@]1(O)C[C@H]2O[C@]1(C)n1c3ccccc3c3c4c(c5c6ccccc6n2c5c31)C(=O)NC4` [K-252A], the Control in assay [1] is under 120%; in assay [5], 325%; in assay [2], 186%; in assay [3], 148%. Also, the IC50 in assay [6] is 0.02 µM; in assay [7], 0.016 µM.
